From EP4818194A1, “CHEMICALLY MODIFIED POLYPEPTIDE” (priority 2023, dated 2025)
Where a SMILES comes first, the peptide text is derived from it. Where no end group is shown, it is not given here. [ ]: non-standard residue; d: D form. pY = N[C@@H](Cc1ccc(OP(=O)(O)O)cc1)C(=O)O; NMeY = CN[C@@H](Cc1ccc(O)cc1)C(=O)O; Tle = CC(C)(C)[C@H](N)C(=O)O; Aib = CC(C)(N)C(=O)O

Key:
[1] = Pharmacokinetic characteristics in rats after intravenous administration (plasma, LC-MS/MS); format: in vivo; details: rat, SD rats, tail vein, 10 mg/kg; for Vd: read-out: Vss
Method: Intravenous administration: Three SD rats per group were administered the compounds of Example 1, Example 2, Example 3, Example 6, Example 7, Example 17, and Example 19 via the tail vein, respectively, at a dose of 10 mg/kg. all SD rats were allowed free access to food and water after administration. Plasma was collected 3 min, 10 min, 30 min, 1 h, 2 h, 6 h, 10 h, and 24 h after administration, with 3 rats per time point.
Sample processing: Whole blood was anticoagulated with EDTA-K2. Within 30 minutes of collection, the blood was centrifuged at 3000g for 10 minutes at 2-8°C. After centrifugation, the separated plasma was transferred to new 1.5 mL centrifuge tubes and stored at -80°C.
Analytical method: The concentrations of each compounds in rat plasma were determined by LC-MS/MS using Shimadzu LC30AD and AB Sciex QTRAP 6500+instruments. The relevant pharmacokinetic parameters after administration were calculated. Table 5: Pharmacokinetic parameters after administration

[2] = system: PC-12 cells; format: cell-based; details: for Normalized cell viability (%): PC-12 cells, 10 nM polypeptide pretreatment for 30 minutes, then glutamate stimulation for 24 hours, normalized to positive control MK-801 and glutamate group
Method: PC-12 cells (a […] cell line derived from rat adrenal medulla) were cultured in DMEM/F12 complete medium until eaching 80-90% confluence. The cells were then digested, collected, resuspended, and seeded at density of 5 × 10^4 cells per well in a 24-well plate precoated with coverslips. Following 26 hours of cell culture, excitotoxic cell death was induced by glutamate stimulation. For model establishment: an appropriate amount of glutamate was weighed and dissolved in DMEM/F12 medium to prepare a stock solution. After filtration, the stock solution was diluted with culture medium and administered to the cells via medium replacement. The cells were further incubated for 24 hours after administration.
Prior to glutamate modeling, cells incubated as described in the previous step were pretreated with 10 nM of the polypeptide compound according to the present application for 30 minutes, followed by glutamate stimulation.
Cells treated with the polypeptide compound according to the present application were stained with propidium iodide to assess cell death. After discarding the culture medium, the cells were washed with PBS, and propidium iodide/Hoechst was added. After incubating for 30 minutes, the cells were removed and the staining solution was discarded. After washing with PBS, the cells were fixed and mounted, and subjected to image acquisition under a fluorescence microscope. The number of propidium iodide-positive cells and Hoechst-positive cells in the acquired images was counted to calculate the cell viability. MK-801 was used as the positive control compound. The normalized cell viability was calculated using the following formula: (cell viability of the compound group - cell viability of the glutamate group) / (cell viability of the positive control group - cell viability of the glutamate group) × 100%.
Based on the above dose-response studies of the compound, the inhibitory effects of different small-molecule compounds at the same dose (10 nM) against excitotoxic death in PC-12 neurons cells were further compared. […]

Compound | MRT [1] [h] | half-life [1] [h] | Vd [1] [L/kg] | EC50 ([2]; 26 h) [nM] | Normalized cell viability (%) [2] [%]
YGRKKRRQRRRKKNRNKLRRQHSY-NH2 [Example 6] | 1.65 | 1.23 | 2.53 |  | 
Ac-YGRKKRRQRRRKKNRNKLRRQHSY-NH2 [Example 7] | 1.93 | 1.51 | 3.58 |  | 
CN[C@@H](Cc1ccc(O)cc1)C(=O)NCC(=O)N[C@@H](CCCNC(=N)N)C(=O)N[C@@H](CCCCN)C(=O)N[C@@H](CCCCN)C(=O)N[C@@H](CCCNC(=N)N)C(=O)N[C@@H](CCCNC(=N)N)C(=O)N[C@@H](CCC(=O)O)C(=O)N[C@@H](CCCNC(=N)N)C(=O)N[C@@H](CCCNC(=N)N)C(=O)N[C@@H](CCCNC(=N)N)C(=O)N[C@@H](CCCCN)C(=O)N[C@@H](CCCCN)C(=O)N[C@@H](CC(=O)O)C(=O)N[C@@H](CCCNC(=N)N)C(=O)N[C@@H](CC(=O)O)C(=O)N[C@@H](CCCCN)C(=O)N[C@@H](CC(C)C)C(=O)N[C@@H](CCCNC(=N)N)C(=O)N[C@@H](CCCNC(=N)N)C(=O)N[C@@H](CCC(=O)O)C(=O)N[C@@H](Cc1c[nH]cn1)C(=O)N[C@@H](CO)C(=O)N[C@@H](Cc1ccc(O)cc1)C(N)=O [Example 19] (H-[NMeY]GRKKRRERRRKKDRDKLRREHSY-NH2) | 1.73 | 1.16 | 9.11 |  | 
CN[C@@H](Cc1ccc(O)cc1)C(=O)NC(C)(C)C(=O)N[C@@H](CCCNC(=N)N)C(=O)N[C@@H](CCCCN)C(=O)N[C@@H](CCCCN)C(=O)N[C@@H](CCCNC(=N)N)C(=O)N[C@@H](CCCNC(=N)N)C(=O)N[C@@H](CCC(=O)O)C(=O)N[C@@H](CCCNC(=N)N)C(=O)N[C@@H](CCCNC(=N)N)C(=O)N[C@@H](CCCNC(=N)N)C(=O)N[C@@H](CCCCN)C(=O)N[C@@H](CCCCN)C(=O)N[C@@H](CC(=O)O)C(=O)N[C@@H](CCCNC(=N)N)C(=O)N[C@@H](CC(=O)O)C(=O)N[C@@H](CCCCN)C(=O)N[C@H](C(=O)N[C@@H](CCCNC(=N)N)C(=O)N[C@@H](CCCNC(=N)N)C(=O)N[C@@H](CCC(=O)O)C(=O)N[C@@H](Cc1c[nH]cn1)C(=O)N[C@@H](CO)C(=O)N[C@@H](Cc1ccc(O)cc1)C(N)=O)C(C)(C)C [Example 24, Me-YAibRKKRRERRRKKDRDKTleRREHSY-NH2] (H-[NMeY][Aib]RKKRRERRRKKDRDK[Tle]RREHSY-NH2) |  |  |  | 1.35 | 
CN[C@@H](Cc1ccc(O)cc1)C(=O)NCC(=O)N[C@@H](CCCNC(=N)N)C(=O)N[C@@H](CCCCN)C(=O)N[C@@H](CCCCN)C(=O)N[C@@H](CCCNC(=N)N)C(=O)N[C@@H](CCCNC(=N)N)C(=O)N[C@@H](CCC(N)=O)C(=O)N[C@@H](CCCNC(=N)N)C(=O)N[C@@H](CCCNC(=N)N)C(=O)N[C@@H](CCCNC(=N)N)C(=O)N[C@@H](CCCCN)C(=O)N[C@@H](CCCCN)C(=O)N[C@@H](CC(N)=O)C(=O)N[C@@H](CCCNC(=N)N)C(=O)N[C@@H](CC(N)=O)C(=O)N[C@@H](CCCCN)C(=O)N[C@@H](CC(C)C)C(=O)N[C@@H](CCCNC(=N)N)C(=O)N[C@@H](CCCNC(=N)N)C(=O)N[C@@H](CCC(N)=O)C(=O)N[C@@H](Cc1c[nH]cn1)C(=O)N[C@@H](CO)C(=O)N[C@@H](Cc1ccc(O)cc1)C(=O)O [Example 2] (H-[NMeY]GRKKRRQRRRKKNRNKLRRQHSY-OH) | 1.84 | 1.73 | 3.94 |  | 
YGRKKRRQRRRKKNRNKLRRQHSY [Example 1, reference compound] | 0.87 | 0.76 | 1.29 |  | 41.00
YGRKKRRERRRKKDRNKLRRQHSY [Example 17] | 2.29 | 1.66 | 23.1 |  | 
Ac-YGRKKRRQRRRKKNRNKLRRQHSY [Example 4] |  |  |  |  | 85.00
CC(C)C[C@H](NC(=O)[C@H](CCCCN)NC(=O)[C@H](CC(N)=O)NC(=O)[C@H](CCCNC(=N)N)NC(=O)[C@H](CC(N)=O)NC(=O)[C@H](CCCCN)NC(=O)[C@H](CCCCN)NC(=O)[C@H](CCCNC(=N)N)NC(=O)[C@H](CCCNC(=N)N)NC(=O)[C@H](CCCNC(=N)N)NC(=O)[C@H](CCC(N)=O)NC(=O)[C@H](CCCNC(=N)N)NC(=O)[C@H](CCCNC(=N)N)NC(=O)[C@H](CCCCN)NC(=O)[C@H](CCCCN)NC(=O)[C@H](CCCNC(=N)N)NC(=O)CNC(=O)[C@@H](N)Cc1ccc(OP(=O)(O)O)cc1)C(=O)N[C@@H](CCCNC(=N)N)C(=O)N[C@@H](CCCNC(=N)N)C(=O)N[C@@H](CCC(N)=O)C(=O)N[C@@H](Cc1c[nH]cn1)C(=O)N[C@@H](CO)C(=O)N[C@@H](Cc1ccc(O)cc1)C(=O)O [Example 3] (H-[pY]GRKKRRQRRRKKNRNKLRRQHSY-OH) | 1.71 | 1.28 | 7.9 |  | 
